Experimental data as given in ChEMBL document CHEMBL3045954, “Synthesis and antidepressant activity of di substituted-5-aryl-1,2,4-triazoles” (Med Chem Res, 2012).
Activity calls are given as the source filed them. No cut-off for these calls is given here.

Key:
[1] = tested on: Mus musculus; experiment: Antidepressant activity in overnight fasted Mus musculus (mouse) assessed as decrease in immobility time at 10 mg/kg, ip administered 60 min prior to testing measured for 5 min by tail suspension test (reference value: 169.8 +/- 13 secs); assay type: functional; conditions: route intraperitoneal
[2] = tested on: Mus musculus; experiment: Antidepressant activity in overnight fasted Mus musculus (mouse) assessed as decrease in immobility time at 30 mg/kg, ip administered 60 min prior to testing measured for 5 min by tail suspension test (reference value: 169.8 +/- 13 secs); assay type: functional; conditions: route intraperitoneal
[3] = tested on: Mus musculus; experiment: Acute toxicity in Mus musculus Swiss albino (mouse) up to 2000 mg/kg, ip measured for 1 month; assay type: organism-based; set-up: dose 2000 mg/kg, route intraperitoneal; conditions: in vivo, 730.5 h
[4] = tested on: Mus musculus; experiment: Antidepressant activity in overnight fasted Mus musculus (mouse) assessed as decrease in immobility time at 100 mg/kg, ip administered 60 min prior to testing measured for 5 min by tail suspension test (reference value: 169.8 +/- 13 secs); assay type: functional; conditions: route intraperitoneal
[5] = organism: Mus musculus; experiment: Behavioral effect in Mus musculus (mouse) assessed as effect on alertness after 3 hr; assay type: functional, organism-based

| SMILES | Time [1] | Time [2] | Activity [3] | Time [4] | Activity [5] |
| --- | --- | --- | --- | --- | --- |
| CN(C)CCCN1c2ccccc2CCc2ccccc21 [IMIPRAMINE] | 95.8 s |  |  |  |  |
| CCN(CC)CCSc1n[nH]c(-c2ccccc2)n1 | 145.8 s | 120.7 s | Non-toxic | 108.3 s | inactive |
| COc1ccc(-c2nc(SCCN(C3CCCCC3)C3CCCCC3)n[nH]2)cc1 | 101.3 s | 96.3 s | Non-toxic | 94.8 s | inactive |
| Clc1ccc(-c2nc(SCCN(C3CCCCC3)C3CCCCC3)n[nH]2)cc1 | 96.8 s | 94.8 s | Non-toxic | 89.2 s | inactive |
| CCN(CC)CCSc1n[nH]c(-c2ccc(Cl)cc2)n1 | 129.7 s | 115 s | Non-toxic | 103.8 s | inactive |
| CCN(CC)CCSc1n[nH]c(-c2ccccc2O)n1 | 173.8 s | 163.5 s | Non-toxic | 137.3 s | inactive |
| COc1ccc(-c2nc(SCCN(C)C)n[nH]2)cc1 | 116.3 s | 111 s | Non-toxic | 103.8 s | inactive |
| Cc1ccc(-c2nc(SCCN(C)C)n[nH]2)cc1 | 172.8 s | 168.2 s | Non-toxic | 152.8 s | inactive |
| CN(C)CCSc1n[nH]c(-c2ccc(O)cc2)n1 | 161.2 s | 150.3 s | Non-toxic | 149 s | inactive |
| CN(C)CCSc1n[nH]c(-c2ccccc2O)n1 | 164.8 s | 150.8 s | Non-toxic | 150 s | inactive |
| CCN(CC)CCSc1n[nH]c(-c2ccc(O)cc2)n1 | 171.8 s | 167.3 s | Non-toxic | 151.8 s | inactive |
| Cc1ccc(-c2nc(SCCN(C3CCCCC3)C3CCCCC3)n[nH]2)cc1 | 165 s | 151.3 s | Non-toxic | 150 s | inactive |
| Oc1ccc(-c2nc(SCCN(C3CCCCC3)C3CCCCC3)n[nH]2)cc1 | 157.5 s | 126.2 s | Non-toxic | 112.7 s | inactive |
| CCN(CC)CCSc1n[nH]c(-c2ccc(C)cc2)n1 | 178.3 s | 168.2 s | Non-toxic | 151.2 s | inactive |
| CCN(CC)CCSc1n[nH]c(-c2ccc(Cl)cc2Cl)n1 | 121.8 s | 110 s | Non-toxic | 103.2 s | inactive |
| CN(C)CCSc1n[nH]c(-c2ccc(Cl)cc2)n1 | 109.2 s | 102.2 s | Non-toxic | 96 s | inactive |
| CN(C)CCSc1n[nH]c(-c2ccccc2)n1 | 117.2 s | 110.3 s | Non-toxic | 102 s | inactive |
| CCN(CC)CCSc1n[nH]c(-c2ccc(OC)cc2)n1 | 139 s | 118.5 s | Non-toxic | 103.8 s | inactive |
| c1ccc(-c2nc(SCCN(C3CCCCC3)C3CCCCC3)n[nH]2)cc1 | 117 s | 109.7 s | Non-toxic | 101.7 s | inactive |
| Oc1ccccc1-c1nc(SCCN(C2CCCCC2)C2CCCCC2)n[nH]1 | 162.5 s | 149.3 s | Non-toxic | 150 s | inactive |
| CN(C)CCSc1n[nH]c(-c2ccc(Cl)cc2Cl)n1 | 109 s | 101.8 s | Non-toxic | 96.2 s | inactive |
| Clc1ccc(-c2nc(SCCN(C3CCCCC3)C3CCCCC3)n[nH]2)c(Cl)c1 | 96.5 s | 94.5 s | Non-toxic | 90.5 s | inactive |
